Measured values published in patent US10351546B2, “Pyridin-3-yl acetic acid derivatives as inhibitors of human immunodeficiency virus replication” (priority 2015, dated 2019).

Tested on: NL-RLuc virus
Experiment: Inhibition of HIV replication (NL-RLuc luciferase reporter virus in MT-2 cells)
Format: cell-based
Settings: Human immunodeficiency virus 1, MT2, 120 h, read-out: Activity
Outline: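 The read-out is Renilla luciferase expressed by replication-competent NL-RLuc (nef partly replaced), measured 5 days after infection of MT-2 cells grown with compound dilutions in 10% FBS RPMI. Median effect equation gives EC50 from ≥2 runs; A ≤100 nM, B 100 nM–1 uM, C >1 uM.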

Row | SMILES | EC50 [µM]
1 | Cc1nc(CNC23CC(C2)C3)c(-c2ccc(OCCc3ccc(F)cc3)cc2)c(N2CCC(C)(C)CC2)c1[C@H](OC(C)(C)C)C(=O)O [Example 174, (S)-2-(6-((Bicyclo[1.1.1]pentan-1-ylamino)methyl)-4-(4,4-dimethylpiperidin-1-yl)-5-(4-(4-fluorophenethoxy)phenyl)-2-methylpyridin-3-yl)-2-(tert-butoxy)acetic acid] | < 0.1
2 | Cc1cccc(Cl)c1CN1CCc2cc(-c3c(CN4CCC4)nc(C)c([C@H](OC(C)(C)C)C(=O)O)c3N3CCC(C)(C)CC3)ccc2C1 [Example 175, (S)-2-(6-(Azetidin-1-ylmethyl)-5-(2-(2-chloro-6-methylbenzyl)-1,2,3,4-tetrahydroisoquinolin-6-yl)-4-(4,4-dimethylpiperidin-1-yl)-2-methylpyridin-3-yl)-2-(tert-butoxy)acetic acid] | < 0.1
3 | Cc1cccc(Cl)c1CN1CCc2cc(-c3c(CN4CCCC4)nc(C)c([C@H](OC(C)(C)C)C(=O)O)c3N3CCC(C)(C)CC3)ccc2C1 [Example 176, (S)-2-(tert-Butoxy)-2-(5-(2-(2-chloro-6-methylbenzyl)-1,2,3,4-tetrahydroisoquinolin-6-yl)-4-(4,4-dimethylpiperidin-1-yl)-2-methyl-6-(pyrrolidin-1-ylmethyl)pyridin-3-yl)acetic acid] | < 0.1
4 | Cc1cccc(Cl)c1CN1CCc2cc(-c3c(CN4CCCCC4)nc(C)c([C@H](OC(C)(C)C)C(=O)O)c3N3CCC(C)(C)CC3)ccc2C1 [Example 177, (S)-2-(tert-Butoxy)-2-(5-(2-(2-chloro-6-methylbenzyl)-1,2,3,4-tetrahydroisoquinolin-6-yl)-4-(4,4-dimethylpiperidin-1-yl)-2-methyl-6-(piperidin-1-ylmethyl)pyridin-3-yl)acetic acid] | < 0.1
5 | Cc1cccc(Cl)c1CN1CCc2cc(-c3c(CN4CCC5(CC4)CC5)nc(C)c([C@H](OC(C)(C)C)C(=O)O)c3N3CCC(C)(C)CC3)ccc2C1 [Example 178, (S)-2-(6-((6-Azaspiro[2.5]octan-6-yl)methyl)-5-(2-(2-chloro-6-methylbenzyl)-1,2,3,4-tetrahydroisoquinolin-6-yl)-4-(4,4-dimethylpiperidin-1-yl)-2-methylpyridin-3-yl)-2-(tert-butoxy)acetic acid] | < 0.1
6 | Cc1cccc(Cl)c1CN1CCc2cc(-c3c(CN4CCC(C)(C)CC4)nc(C)c([C@H](OC(C)(C)C)C(=O)O)c3N3CCC(C)(C)CC3)ccc2C1 [Example 179, (S)-2-(tert-Butoxy)-2-(5-(2-(2-chloro-6-methylbenzyl)-1,2,3,4-tetrahydroisoquinolin-6-yl)-4-(4,4-dimethylpiperidin-1-yl)-6-((4,4-dimethylpiperidin-1-yl)methyl)-2-methylpyridin-3-yl)acetic acid] | < 0.1
7 | Cc1cccc(Cl)c1CN1CCc2cc(-c3c(CN4CCC5(CCC5)CC4)nc(C)c([C@H](OC(C)(C)C)C(=O)O)c3N3CCC(C)(C)CC3)ccc2C1 [Example 180, (S)-2-(6-((7-Azaspiro[3.5]nonan-7-yl)methyl)-5-(2-(2-chloro-6-methylbenzyl)-1,2,3,4-tetrahydroisoquinolin-6-yl)-4-(4,4-dimethylpiperidin-1-yl)-2-methylpyridin-3-yl)-2-(tert-butoxy)acetic acid] | < 0.1
8 | CC1(C)CCN(c2c([C@H](OC(C)(C)C)C(=O)O)cnc(CO)c2-c2ccc(OCCc3ccc(F)cc3)cc2)CC1 [Example 181, (S)-2-(tert-butoxy)-2-(4-(4,4-dimethylpiperidin-1-yl)-5-(4-(4-fluorophenethoxy)phenyl)-6-(hydroxymethyl)pyridin-3-yl)acetic acid] | < 0.1
9 | Cc1ncc([C@H](OC(C)(C)C)C(=O)O)c(N2CCC(C)(C)CC2)c1-c1ccc(OCCc2ccc(F)cc2)cc1 [Example 182, (S)-2-(tert-Butoxy)-2-(4-(4,4-dimethylpiperidin-1-yl)-5-(4-(4-fluorophenethoxy)phenyl)-6-methylpyridin-3-yl)acetic acid] | < 0.1
10 | COCc1ncc([C@H](OC(C)(C)C)C(=O)O)c(N2CCC(C)(C)CC2)c1-c1ccc(OCCc2ccc(F)cc2)cc1 [Example 183, (S)-2-(tert-Butoxy)-2-(4-(4,4-dimethylpiperidin-1-yl)-5-(4-(4-fluorophenethoxy)phenyl)-6-(methoxymethyl)pyridin-3-yl)acetic acid] | < 0.1
11 | CC1(C)CCN(c2c([C@H](OC(C)(C)C)C(=O)O)cnc(CCl)c2-c2ccc(OCCc3ccc(F)cc3)cc2)CC1 [Example 184, (S)-2-(tert-Butoxy)-2-(6-(chloromethyl)-4-(4,4-dimethylpiperidin-1-yl)-5-(4-(4-fluorophenethoxy)phenyl)pyridin-3-yl)acetic acid] | < 0.1

Same assay, conditions: Human immunodeficiency virus 1, MT2, 120 h, read-out: EC50 μM

Row | SMILES | EC50 [µM]
12 | Cc1cccc(Cl)c1CN1CCc2cc(-c3c(CN4CCC(C)(C)CC4)nc(C)c([C@H](OC(C)(C)C)C(=O)O)c3N3CCC(C)(C)CC3)ccc2C1 [Example 179, (S)-2-(tert-Butoxy)-2-(5-(2-(2-chloro-6-methylbenzyl)-1,2,3,4-tetrahydroisoquinolin-6-yl)-4-(4,4-dimethylpiperidin-1-yl)-6-((4,4-dimethylpiperidin-1-yl)methyl)-2-methylpyridin-3-yl)acetic acid] | 0.005
13 | CC1(C)CCN(c2c([C@H](OC(C)(C)C)C(=O)O)cnc(CCl)c2-c2ccc(OCCc3ccc(F)cc3)cc2)CC1 [Example 184, (S)-2-(tert-Butoxy)-2-(6-(chloromethyl)-4-(4,4-dimethylpiperidin-1-yl)-5-(4-(4-fluorophenethoxy)phenyl)pyridin-3-yl)acetic acid] | 0.04
